From patent publication US11814375B2, “Heterocyclic compounds” (Hoffmann-La Roche Inc., priority 2019, dated 2023)

Target: T1, MAGL (Homo sapiens, UniProt Q99685)
T1 sequence (Q99685 1-303): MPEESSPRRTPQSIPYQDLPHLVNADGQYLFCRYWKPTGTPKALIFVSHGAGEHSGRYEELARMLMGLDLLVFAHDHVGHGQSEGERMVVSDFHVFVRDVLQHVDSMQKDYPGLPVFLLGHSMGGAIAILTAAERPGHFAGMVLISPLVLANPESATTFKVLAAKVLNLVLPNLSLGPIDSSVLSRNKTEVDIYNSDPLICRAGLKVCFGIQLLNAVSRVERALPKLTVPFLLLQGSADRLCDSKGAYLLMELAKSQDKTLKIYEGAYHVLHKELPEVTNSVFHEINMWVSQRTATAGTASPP
Test: 2-AG assay: MAGL inhibitory activity by hydrolysis of 2-arachidonoylglycerol to arachidonic acid, followed by mass spectrometry
Assay type: biochemical
Details: 8 μM 2-arachidonoylglycerol, 15 min preincubation and 30 min reaction at RT, arachidonic acid/d8-arachidonic acid ratio by MS
Protocol: Compounds of formula (I) were profiled for MAGL inhibitory activity by determining the enzymatic activity by following the hydrolysis of the natural substrate 2-arachidonoylglycerol (2-AG) resulting in arachidonic acid, which can be followed by mass spectrometry. This assay is hereinafter abbreviated “2-AG assay”.
The 2-AG assay was carried out in 384 well assay plates (PP, Greiner Cat #784201) in a total volume of 20 μL. Compound dilutions were made in 100% DMSO (VWR Chemicals 23500.297) in a polypropylene plate in 3-fold dilution steps to give a final concentration range in the assay from 12.5 μM to […]. 0.25 μL compound dilutions (100% DMSO) were added to 9 μL MAGL in assay buffer (50 mM TRIS (GIBCO, 15567-027), 1 mM EDTA (Fluka, 03690-100 mL), 0.01% (v/v) Tween. After shaking, the plate was incubated for 15 min at RT. To start the reaction, 10 μL 2-arachidonoylglycerol in assay buffer was added. The final concentrations in the assay was […] and 8 μM 2-arachidonoylglyerol. After shaking and 30 min incubation at RT, the reaction was quenched by the addition of 40 μL of ACN containing 4 μM of d8-arachidonic acid. The amount of arachidonic acid was traced by an online SPE system (Agilent Rapidfire) coupled to a triple quadrupole mass spectrometer (Agilent 6460). A C18 SPE cartridge (G9205A) was used in an ACN/water liquid setup. The mass spectrometer was operated in negative electrospray mode following the mass transitions 303.1→259.1 for arachidonic acid and 311.1→267.0 for d8-arachidonic acid. The activity of the compounds was calculated based on the ratio of intensities [arachidonic acid/d8-arachidonic acid].

SMILES | IC50 [nM]
O=C1CO[C@H]2CCN(C(=O)N3CC(c4ccc(Oc5ccc(F)cc5)nc4)C3)C[C@H]2N1 [Example 48, (4aR,8aS)-6-(3-(6-(4-Fluorophenoxy)pyridin-3-yl)azetidine-1-carbonyl)hexahydro-2H-pyrido[4,3-b][1,4]oxazin-3(4H)-one] | 31.5
O=C1CO[C@H]2CCN(C(=O)N3CC(c4ccc(-c5ccnc(F)c5)cc4)C3)C[C@H]2N1 [Example 44, (4aR,8aS)-6-[3-[4-(2-Fluoropyridin-4-yl)phenyl]azetidine-1-carbonyl]-4,4a,5,7,8,8a-hexahydropyrido[4,3-b][1,4]oxazin-3-one] | 67.7
O=C1CO[C@H]2CCN(C(=O)N3CC(c4ccc(Oc5cccc(Cl)c5)nc4)C3)C[C@H]2N1 [Example 53, (4aR,8aS)-6-(3-(6-(3-Chlorophenoxy)pyridin-3-yl)azetidine-1-carbonyl)hexahydro-2H-pyrido[4,3-b][1,4]oxazin-3(4H)-one] | 12.9
O=C1CO[C@H]2CCN(C(=O)N3CC(O)(c4ccc(Oc5ccccc5)cc4)C3)C[C@H]2N1 [Example 55, (4aR,8aS)-6-[3-Hydroxy-3-(4-phenoxyphenyl)azetidine-1-carbonyl]-4,4a,5,7,8,8a-hexahydropyrido[4,3-b][1,4]oxazin-3-one] | 10.3
Cn1ccc(-c2ccc(C3CN(C(=O)N4CC[C@@H]5OCC(=O)N[C@@H]5C4)C3)cc2)n1 [Example 42, (4aR,8aS)-6-[3-[4-(1-Methylpyrazol-3-yl)phenyl]azetidine-1-carbonyl]-4,4a,5,7,8,8a-hexahydropyrido[4,3-b][1,4]oxazin-3-one] | 153
O=C1CO[C@H]2CCN(C(=O)N3CC(c4ccc(Oc5ccccc5)cc4)C3)C[C@H]2N1 [Example 1, (4aR,8aS)-6-(3-(4-Phenoxyphenyl)azetidine-1-carbonyl)hexahydro-2H-pyrido[4,3-b][1,4]oxazin-3(4H)-one] | 0.2
O=C1CO[C@H]2CCN(C(=O)N3CC(c4ccc(Oc5cccnc5)cc4)C3)C[C@H]2N1 [Example 10, (+)-(4aR,8aS)-6-[3-[4-(3-Pyridyloxy)phenyl]azetidine-1-carbonyl]-4,4a,5,7,8,8a-hexahydropyrido[4,3-b][1,4]oxazin-3-one] | 2.3
O=C1CO[C@H]2CCN(C(=O)N3CC(c4ccc(Oc5ccc(F)cc5)cn4)C3)C[C@H]2N1 [Example 47, (4aR,8aS)-6-[3-[5-(4-Fluorophenoxy)-2-pyridyl]azetidine-1-carbonyl]-4,4a,5,7,8,8a-hexahydropyrido[4,3-b][1,4]oxazin-3-one] | 1.4

Results, then the molecule that gave them:

IC50 [nM] | SMILES
17.4 | Cc1cc(C)n(-c2ccc(C3CN(C(=O)N4CC[C@@H]5OCC(=O)N[C@@H]5C4)C3)cc2)n1 [Example 35, (4aR,8aS)-6-[3-[4-(3,5-Dimethylpyrazol-1-yl)phenyl]azetidine-1-carbonyl]-4,4a,5,7,8,8a-hexahydropyrido[4,3-b][1,4]oxazin-3-one]
0.5 | Cc1ccncc1Oc1ccc(C2CN(C(=O)N3CC[C@@H]4OCC(=O)N[C@@H]4C3)C2)cc1 [Example 7, (+)-(4aR,8aS)-6-[3-[4-[(4-Methyl-3-pyridyl)oxy]phenyl]azetidine-1-carbonyl]-4,4a,5,7,8,8a-hexahydropyrido[4,3-b][1,4]oxazin-3-one]
124 | Cc1cc(Oc2ccc(C3CN(C(=O)N4CC[C@@H]5OCC(=O)N[C@@H]5C4)C3)cc2)c(C)nn1 [Example 51, (4aR,8aS)-6-[3-[4-(3,6-Dimethylpyridazin-4-yl)oxyphenyl]azetidine-1-carbonyl]-4,4a,5,7,8,8a-hexahydropyrido[4,3-b][1,4]oxazin-3-one]
0.3 | O=C1CO[C@H]2CCN(C(=O)N3CC(c4ccc(Oc5cnccc5Cl)cc4)C3)C[C@H]2N1 [Example 27, (+)-(4aR,8aS)-6-[3-[4-[(4-chloro-3-pyridyl)oxy]phenyl]azetidine-1-carbonyl]-4,4a,5,7,8,8a-hexahydropyrido[4,3-b][1,4]oxazin-3-one]
42.9 | Cc1ccnnc1Oc1ccc(C2CN(C(=O)N3CC[C@@H]4OCC(=O)N[C@@H]4C3)C2)cc1 [Example 11, (+)-(4aR,8aS)-6-[3-[4-(4-Methylpyridazin-3-yl)oxyphenyl]azetidine-1-carbonyl]-4,4a,5,7,8,8a-hexahydropyrido[4,3-b][1,4]oxazin-3-one]
2.5 | Cc1ncccc1Oc1ccc(C2CN(C(=O)N3CC[C@@H]4OCC(=O)N[C@@H]4C3)C2)cc1 [Example 4, (4aR,8aS)-6-[3-[4-[(2-Methyl-3-pyridyl)oxy]phenyl]azetidine-1-carbonyl]-4,4a,5,7,8,8a-hexahydropyrido[4,3-b][1,4]oxazin-3-one]
